The values that follow are results of earlier work, collected in patent US20150290173A1, “TREATMENT OF SKIN OR MUCOSAL PATHOLOGY” (ZARZATECH, INC., priority 2012, published 2015).

Where a name gives a salt, the structure may show the parent alone.

For data set [1] the following is noted: dog gingivitis model.
The subject of the next data set is crevicular neutrophils. The following applies: topical 0.5% oral rinse, humans.

With `CN/C(=N/CCSCc1nc[nH]c1C)NC#N` [cimetidine, Cimetidine], the “gingival inflammation and gingival bleeding” value in data set [1] was “significantly reduced gingival inflammation and gingival bleeding”. In the data set on crevicular neutrophils, the “antibacterial function of crevicular neutrophils” value is listed as “enhanced antibacterial function of crevicular neutrophils” and the “clinical benefit on gingivitis” value is listed as “no clinical benefit on gingivitis”.

As to `CN/C(=N/CCSCc1nc[nH]c1C)NC#N` [cimetidine HCL], in data set [1] (dose response study), the anti-gingivitis activity result is recorded as “significant anti-gingivitis activity that increased with increasing dose”.
